Measurements from patent US11299472B2, “Fumarate salt of (R)-3-(1-(2,3-dichloro-4-(pyrazin-2-yl)phenyl)-2,2,2- trifluoroethyl)-1-methyl-1-(1-methylpiperidin-4-yl) urea, methods of preparation, and uses thereof” (Helsinn Healthcare SA, priority 2017, dated 2022).

Key:
[1] = Rat pharmacokinetic study, HM04 free base vs HM04 fumarate salt (Example 9); assay type: in vivo, male Sprague Dawley rats
human GHSR1a receptor [2] = biological target: T1, human GHSR1a receptor (Homo sapiens, UniProt Q92847); experiment: Antagonist FLIPR assay in HEK293 cells; assay type: cell-based; details: HEK293 cells expressing human GHSR1a, in duplicate, HM04 tested as fumarate salt
T1 construct: expressed in transfected cells; host or cells: HEK293
T1 sequence (Q92847 whole entry): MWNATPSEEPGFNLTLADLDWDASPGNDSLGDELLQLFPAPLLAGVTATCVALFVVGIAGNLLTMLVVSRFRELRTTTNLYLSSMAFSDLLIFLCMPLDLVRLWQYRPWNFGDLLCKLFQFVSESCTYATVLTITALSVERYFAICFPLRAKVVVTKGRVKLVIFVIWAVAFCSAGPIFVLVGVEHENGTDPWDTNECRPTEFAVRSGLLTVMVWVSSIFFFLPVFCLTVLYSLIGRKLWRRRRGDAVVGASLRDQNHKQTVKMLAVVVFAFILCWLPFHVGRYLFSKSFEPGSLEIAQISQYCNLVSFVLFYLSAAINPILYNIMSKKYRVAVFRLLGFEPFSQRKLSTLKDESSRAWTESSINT
Method: The compounds were diluted with 100% DMSO to make 30 mM stock. On the test day, serial dilutions were prepared starting from the stock solution. For the FLIPR assay: 1) 8 μl of DMSO was added to 2 μl of compound stock solution (30 mM) to produce 10 μl of 6 mM solution; half-fold serial dilutions of the 6 mM solution were produced to generate ten doses; 2) test solutions were obtained by diluting the stock solutions 1/40 in assay buffer (DMSO concentration 2.5%). […]
(§1) For the agonist and antagonist activity study, HEK293 cells stably expressing human GHSR1a receptor were used in a (FLIPR) assay. […] Fluorescence signal was detected with FLIPR at room temperature according to standard settings for 10 minutes before cells were exposed to 10 μl of 5× working concentrations of agonists (compound added by FLIPR). The fluorescence signal was detected in the subsequent 3 minutes (antagonist mode).
Data were reported as relative light units (RLUs) and analyzed using GraphPad Software Inc. version 6. The half maximal inhibitory concentration (IC50) measured for HM04 and R011 were calculated by non-linear regression analysis.

human GHSR1a receptor [3] = biological target: T1, human GHSR1a receptor; experiment: Agonist FLIPR assay in HEK293 cells; assay type: cell-based; details: FLIPR agonist mode, concentrations up to 10 μM
Method: (§2) The compounds were diluted with 100% DMSO to make 30 mM stock. On the test day, serial dilutions were prepared starting from the stock solution. For the FLIPR assay: 1) 8 μl of DMSO was added to 2 μl of compound stock solution (30 mM) to produce 10 μl of 6 mM solution; half-fold serial dilutions of the 6 mM solution were produced to generate ten doses; 2) test solutions were obtained by diluting the stock solutions 1/40 in assay buffer (DMSO concentration 2.5%). For the IP-1 assay: 1) 29 μl of DMSO was added to 1 μl of compound stock solution (30 mM) to produce 30 μl of 1 mM solution; half-fold serial dilutions of the 1 mM solution were produced to generate 10 doses; 2) test solutions were obtained by diluting the stock solutions 1/100 in assay buffer (DMSO final concentration 1%).
as §1

human GHSR1a receptor [4] = biological target: T1, human GHSR1a receptor; experiment: Inositol 1 phosphate (IP-1) inverse agonist assay; assay type: cell-based; details: IP-1 assay
Method: as §2
For the inverse agonist activity study, the same procedure described above was followed up to the day of the test. On the test day, the medium was removed by centrifuging at 700 rpm for 30 seconds and 20 μl/well of assay buffer containing the HM04 or R011 was added. The assay plates were incubated at 37° C. in the dark for 1 hour. IP1-d2 (5 μl) and AB-Cryp (5 μl) were sequentially added to all wells using multidrop Combi. The plate was incubated at room temperature for 1 hour and read on EnVision at 620 nm and 665 nm.

[5] = test system: Snord116+/− (Het) mice and wild-type (WT) littermates; experiment: Food intake after acute administration in Prader-Willi mouse model; assay type: in vivo; details: for cumulative food intake: fasted 16 hours
Excerpt: (§3) The effect of HM04 fumarate salt on food intake behavior and glucose tolerance was investigated in the Snord116+/−(Het) mouse genetic model of Prader-Willi syndrome (Het mouse) compared to wild-type (WT) littermates. Since D2R agonists suppress food intake, the FDA approved D2R agonist cabergoline was used as an experimental control. Phenotypic characteristics of this PWS mouse model include hyperphagia, postnatal growth retardation, high ghrelin, and low growth hormone. Ding F., et al. SnoRNA Snord116 (Pwcr1/MBII-85) deletion causes growth deficiency and hyperphagia in mice. PloS one. 2008; 3(3):e1709. These PWS mice eat more frequently than WT littermates, particularly during the light cycle and are more motivated to work for food (more level presses) (data not shown).
Acute administration: Mice (3-, 7-, and 12-month-old) were fasted for 16 hours and then administered a single intraperitoneal injection of vehicle or vehicle containing HM04, cabergoline, or HM04 and cabergoline according to Table 8, below.
HM04 was dissolved in water for injection and cabergoline was dissolved in DMSO to provide a 5% DMSO/water solution for injection. Mice were then given free access to food, and cumulative food intake was measured at 1, 2, 4, 8, 12, and 24 hours post-dosing. […] Data was analyzed for significance using 2-way ANOVA, Bonferroni post hoc test (Graphpad Prism, Prism 5.0, San Diego, Calif.).

[6] = test system: Snord116+/− (Het) mice and wild-type (WT) littermates; experiment: Food intake and body weight after daily administration in Prader-Willi mouse model; assay type: in vivo
Excerpt: as §3
Food intake and body weight were measured daily.

[7] = test system: Snord116+/− (Het) mice and wild-type (WT) littermates; experiment: Glucose tolerance in Prader-Willi mouse model; assay type: in vivo
Excerpt: as §3

[8] = 6-month-old Het mice, HM04 10 mg/kg i.p. daily at 07.00 hours for 10 days
[9] = 6-month-old WT mice, HM04 10 mg/kg i.p. daily at 07.00 hours for 10 days
[10] = 8-month-old Het mice, HM04 30 mg/kg oral daily at 07.00 hours for 5 days
[11] = 8-month-old Het mice, HM04 30 mg/kg oral daily at 18.00 hours for 5 days
[12] = 8-month-old WT mice, HM04 30 mg/kg oral daily at 07.00 hours for 5 days

## CN1CCC(N(C)C(=O)N[C@H](c2ccc(-c3cnccn3)c(Cl)c2Cl)C(F)(F)F)CC1.O=C(O)/C=C/C(=O)O [HM04 fumarate salt, (R)-3-(1-(2,3-dichloro-4-(pyrazin-2-yl)phenyl)-2,2,2-trifluoroethyl)-1-methyl-1-(1-methylpiperidin-4-yl)urea fumarate salt]
[1]; 3 mg/kg oral, 0.25 hours, mean ± S.D., n=3
  HM04 plasma concentration: 107.8 ± 27.8 ng/mL
[1]; 3 mg/kg oral, 4 hours, mean ± S.D., n=3
  HM04 plasma concentration: 108.3 ± 38.3 ng/mL
[1]; male, Sprague Dawley, plasma, 3 mg/kg intravenous, three rats, read-out: mean AUC following intravenous administration
  AUC: 2100 ± 358 ng·h/mL
[1]; male, Sprague Dawley, plasma, 3 mg/kg oral vs 3 mg/kg intravenous mean AUC
  bioavailability: 46.1 ± 6.99%
[1]; male, Sprague Dawley, plasma, 3 mg/kg oral, mean ± S.D., n=3
  Cmax: 329 ± 185 ng/mL

## CN1CCC(N(C)C(=O)N[C@H](c2ccc(-c3cnccn3)c(Cl)c2Cl)C(F)(F)F)CC1 [HM04, (R)-3-(1-(2,3-dichloro-4-(pyrazin-2-yl)phenyl)-2,2,2-trifluoroethyl)-1-methyl-1-(1-methylpiperidin-4-yl)urea]
Human GHSR1a receptor [2]
  IC50: 7.31 nM
Human GHSR1a receptor [3]
  agonist activity: No agonist activity was observed
Human GHSR1a receptor [4]
  inverse agonist activity: did not show a clear significant inverse agonist activity
[5]; 3-month-old Het mice, HM04 10 mg/kg single i.p.
  cumulative food intake: significantly suppressed food intake at 12 and 24 hours post-dosing
[5]; 3-month-old WT mice, HM04 10 mg/kg single i.p.
  cumulative food intake: failed to inhibit food intake
[5]; 7-month-old Het mice, HM04 10 mg/kg single i.p.
  cumulative food intake: did not inhibit food intake
[5]; 7-month-old Het mice, HM04 30 mg/kg single i.p.
  food intake: inhibited food intake for up to 8 hours
[5]; 7-month-old WT mice, HM04 10 mg/kg single i.p.
  cumulative food intake: did not inhibit food intake
[5]; 7-month-old WT mice, HM04 30 mg/kg single i.p.
  food intake: no apparent effect on food intake
[5]; 12-month-old Het mice, HM04 10 mg/kg single i.p., 1 hour after dosing
  food intake: suppressed food intake
[5]; 12-month-old Het mice, HM04 10 mg/kg single i.p., after 1 hour (up to 24 hours)
  food intake: that level of inhibition was not maintained
[5]; 12-month-old WT mice, HM04 10 mg/kg i.p.
  food intake: did not reduce food intake
[6]; [8]
  body weight: no apparent effect
  food intake: no apparent effect
[6]; [9]
  body weight: no apparent effect
  food intake: no apparent effect
[6]; [10]
  body weight: unaffected
  food intake: significant decrease in food intake was observed by day 2, but not on subsequent days
[6]; [11]
  food consumption during the dark cycle: suppression of food consumption was not observed
  food intake during the subsequent light cycle (06.00-18.00): food intake was lower in HM04-treated Het mice, but not WT mice on days 2, 3, 4, and 5 and reached significance on day 5
[6]; [12]
  body weight: No reduction in food intake or body weight
  food intake: No reduction in food intake
[6]; 8-month-old WT mice, HM04 30 mg/kg oral daily at 18.00 hours for 5 days
  food consumption during the dark cycle: suppression of food consumption was not observed
[7]; Het mice
  glucose tolerance: did not show an improvement in glucose tolerance
[7]; WT mice
  glucose tolerance: an effect was observed
